According to paper PMC10367131 (ACS Synthetic Biology, 2023):
Blank lines part the entries; values can stand above or below the compound they belong to.

How the values were obtained:
[1] = target: T1, VgGR/RXR (Homo sapiens, UniProt P04150+P19793, F602S); test: VgGR/RXR luciferase reporter co-transfection assay in HEK293 cells; assay type: cell-based
T1 sequence (P04150 523-777 F602S limits assumed): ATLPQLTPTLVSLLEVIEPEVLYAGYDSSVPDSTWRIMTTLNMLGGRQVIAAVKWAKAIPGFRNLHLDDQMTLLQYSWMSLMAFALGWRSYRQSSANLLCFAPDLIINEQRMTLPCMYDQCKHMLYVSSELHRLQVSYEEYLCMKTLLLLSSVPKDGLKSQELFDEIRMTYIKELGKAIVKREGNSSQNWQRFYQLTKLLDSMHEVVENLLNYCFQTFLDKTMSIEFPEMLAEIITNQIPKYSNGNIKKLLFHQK
T1 sequence (P19793 1-462): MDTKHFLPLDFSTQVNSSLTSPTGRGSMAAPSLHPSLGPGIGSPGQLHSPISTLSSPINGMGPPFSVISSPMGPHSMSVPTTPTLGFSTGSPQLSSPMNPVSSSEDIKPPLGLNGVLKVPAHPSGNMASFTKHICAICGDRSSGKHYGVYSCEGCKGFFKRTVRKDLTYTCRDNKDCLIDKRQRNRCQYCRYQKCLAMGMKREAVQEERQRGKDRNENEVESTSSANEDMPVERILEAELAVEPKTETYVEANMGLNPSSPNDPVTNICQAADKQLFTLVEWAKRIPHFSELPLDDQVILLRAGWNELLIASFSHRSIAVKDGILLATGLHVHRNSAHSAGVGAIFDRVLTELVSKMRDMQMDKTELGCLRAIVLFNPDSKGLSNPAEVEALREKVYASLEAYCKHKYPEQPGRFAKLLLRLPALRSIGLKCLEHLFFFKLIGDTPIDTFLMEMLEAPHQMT

[2] = tested on: VgEcR/RXR; test: Original VgEcR/RXR luciferase reporter co-transfection assay in HEK293 cells; assay type: cell-based, human; conditions: ligand alone at 1 µM or 10 µM, HEK293, 20 h

Maximal activation of reporter expression by ligand alone [1]: around one order of magnitude
Structure (SMILES): C[C@@H]1C[C@H]2[C@@H]3CCC4=CC(=O)C=C[C@]4(C)[C@@]3(F)[C@@H](O)C[C@]2(C)[C@@]1(O)C(=O)CO [DEX, dexamethasone]
Response of original VgEcR/RXR reporter expression to ligand [2]: did not respond

Structure (SMILES): C[C@]12C=CC(=O)C=C1CC[C@@H]1[C@@H]2[C@@H](O)C[C@@]2(C)[C@H]1CC[C@]2(O)C(=O)CO [PRED, prednisolone]
Response of original VgEcR/RXR reporter expression to ligand [2]: did not respond

Response of VgGR/RXR reporter expression to ligand ([1]; ligand alone, HEK293, 20 h): did not respond
Structure (SMILES): CC(C)CC[C@@H](O)[C@](C)(O)[C@H]1CC[C@@]2(O)C3=CC(=O)[C@@H]4C[C@@H](O)[C@@H](O)C[C@]4(C)[C@H]3CC[C@]12C [PonA, ponasterone A]

Effect of increasing antagonist concentration on DEX-activated output [1]: reduction of output levels
Effect on reporter expression in the absence of DEX [1]: increase in reporter expression
Structure (SMILES): CC#C[C@]1(O)CC[C@H]2[C@@H]3CCC4=CC(=O)CCC4=C3[C@@H](c3ccc(N(C)C)cc3)C[C@@]21C [RU-486, mifepristone]
